pIC50: −log10 of the molar value. Positions of bridges follow the written chain, without caps; N, C: chain ends. Non-standard residues stand in square brackets, D forms with d. Residues, ends and D or L forms follow the SMILES beside them. Bip(4'-NHAc) = CC(=O)Nc1ccc(-c2ccc(C[C@H](N)C(=O)O)cc2)cc1; Ala(morpholin-4-yl) = N[C@@H](CN1CCOCC1)C(=O)O; Phe(4-CH2NH2) = NCc1ccc(C[C@H](N)C(=O)O)cc1; Bip = N[C@@H](Cc1ccc(-c2ccccc2)cc1)C(=O)O; Pro(cis-4-F) = O=C(O)[C@@H]1C[C@H](F)CN1; Phe(4-F) = N[C@@H](Cc1ccc(F)cc1)C(=O)O; Phe(2-F) = N[C@@H](Cc1ccccc1F)C(=O)O; Val(3-OH) = CC(C)(O)[C@H](N)C(=O)O; Hyp = O=C(O)[C@@H]1C[C@@H](O)CN1; 3Pal = N[C@@H](Cc1cccnc1)C(=O)O; Tic = O=C(O)[C@@H]1Cc2ccccc2CN1; Pip = O=C(O)[C@@H]1CCCCN1; Aze = O=C(O)[C@@H]1CCN1; Sar = CNCC(=O)O
Molecular target: TNFα (Homo sapiens, UniProt P01375)
Experiment: TNF-Induced HEK-Blue Assay
Type: cell-based
Conditions: HEK-Blue-CD40L cells, NF-kB-driven secreted alkaline phosphatase reporter; TNFα 0.5 ng/ml; 18 h; read-out: TNF induced HEK-Blue assay IC50 value

TNFα, sequence (P01375 77-233 limits assumed): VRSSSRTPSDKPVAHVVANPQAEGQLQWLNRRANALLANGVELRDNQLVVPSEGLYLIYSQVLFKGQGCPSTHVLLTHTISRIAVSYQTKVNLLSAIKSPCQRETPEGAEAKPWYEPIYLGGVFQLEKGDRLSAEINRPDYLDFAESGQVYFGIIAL

SMILES	pIC50
CC(=O)Nc1ccc(-c2ccc(C[C@@H]3NC(=O)[C@H](Cc4ccccc4)NC(=O)CSC[C@@H](C(=O)NCC(N)=O)NC(=O)[C@H](CC(C)C)NC(=O)[C@H](CCCNC(=N)N)NC(=O)[C@H](C(C)C)NC(=O)[C@@H]4CCCN4C(=O)[C@H](C(C)C)NC(=O)[C@H](CCCNC(=N)N)NC(=O)[C@H](CC(=O)O)NC(=O)[C@@H]4CCCN4C(=O)CN(C)C(=O)[C@H](Cc4ccc(-c5ccccc5)cc4)NC3=O)cc2)cc1 [Example 38] ({CH2CO}-F[Bip(4'-NHAc)][Bip][Sar]PDRVPVRLCG-NH2; thioether N-13)	5.70 to 6.70
CC(C)C[C@@H]1NC(=O)[C@H](CCCNC(=N)N)NC(=O)[C@H](C(C)C)NC(=O)[C@@H]2C[C@@H](O)CN2C(=O)[C@H](C(C)C)NC(=O)[C@H](CCCNC(=N)N)NC(=O)[C@H](CC(=O)O)NC(=O)[C@@H]2CCCN2C(=O)CN(C)C(=O)[C@H](Cc2ccc(-c3ccccc3)cc2)NC(=O)[C@H](Cc2ccc(-c3ccccc3)cc2)NC(=O)[C@H](Cc2ccccc2)NC(=O)CSC[C@@H](C(=O)NCC(N)=O)NC1=O [Example 39] ({CH2CO}-F[Bip][Bip][Sar]PDRV[Hyp]VRLCG-NH2; thioether N-13)	5.70 to 6.70
CC(C)C[C@@H]1NC(=O)[C@H](CCCNC(=N)N)NC(=O)[C@H](C(C)C)NC(=O)[C@@H]2Cc3ccccc3CN2C(=O)[C@H](C(C)C)NC(=O)[C@H](CCCNC(=N)N)NC(=O)[C@H](CC(=O)O)NC(=O)[C@@H]2CCCN2C(=O)CN(C)C(=O)[C@H](Cc2ccc(-c3ccccc3)cc2)NC(=O)[C@H](Cc2ccc(-c3ccccc3)cc2)NC(=O)[C@H](Cc2ccccc2)NC(=O)CSC[C@@H](C(=O)NCC(N)=O)NC1=O [Example 40] ({CH2CO}-F[Bip][Bip][Sar]PDRV[Tic]VRLCG-NH2; thioether N-13)	6.70 to 7.30
CC(C)C[C@@H]1NC(=O)[C@H](CCCNC(=N)N)NC(=O)[C@H](C(C)C)NC(=O)[C@@H]2CCCCN2C(=O)[C@H](C(C)C)NC(=O)[C@H](CCCNC(=N)N)NC(=O)[C@H](CC(=O)O)NC(=O)[C@@H]2CCCN2C(=O)CN(C)C(=O)[C@H](Cc2ccc(-c3ccccc3)cc2)NC(=O)[C@H](Cc2ccc(-c3ccccc3)cc2)NC(=O)[C@H](Cc2ccccc2)NC(=O)CSC[C@@H](C(=O)NCC(N)=O)NC1=O [Example 41] ({CH2CO}-F[Bip][Bip][Sar]PDRV[Pip]VRLCG-NH2; thioether N-13)	5.70 to 6.70
CC(C)C[C@@H]1NC(=O)[C@H](CCCNC(=N)N)NC(=O)[C@H](C(C)C)NC(=O)[C@@H]2CCN2C(=O)[C@H](C(C)C)NC(=O)[C@H](CCCNC(=N)N)NC(=O)[C@H](CC(=O)O)NC(=O)[C@@H]2CCCN2C(=O)CN(C)C(=O)[C@H](Cc2ccc(-c3ccccc3)cc2)NC(=O)[C@H](Cc2ccc(-c3ccccc3)cc2)NC(=O)[C@H](Cc2ccccc2)NC(=O)CSC[C@@H](C(=O)NCC(N)=O)NC1=O [Example 42] ({CH2CO}-F[Bip][Bip][Sar]PDRV[Aze]VRLCG-NH2; thioether N-13)	5.70 to 6.70
CC(C)C[C@@H]1NC(=O)[C@H](CCCNC(=N)N)NC(=O)[C@H](C(C)C)NC(=O)[C@@H]2C[C@H](F)CN2C(=O)[C@H](C(C)C)NC(=O)[C@H](CCCNC(=N)N)NC(=O)[C@H](CC(=O)O)NC(=O)[C@@H]2CCCN2C(=O)CN(C)C(=O)[C@H](Cc2ccc(-c3ccccc3)cc2)NC(=O)[C@H](Cc2ccc(-c3ccccc3)cc2)NC(=O)[C@H](Cc2ccccc2)NC(=O)CSC[C@@H](C(=O)NCC(N)=O)NC1=O [Example 43] ({CH2CO}-F[Bip][Bip][Sar]PDRV[Pro(cis-4-F)]VRLCG-NH2; thioether N-13)	5.70 to 6.70
CC(C)C[C@@H]1NC(=O)[C@H](CCCNC(=N)N)NC(=O)[C@H](C(C)C)NC(=O)[C@@H]2CCCN2C(=O)[C@H](C(C)C)NC(=O)[C@H](CCCNC(=N)N)NC(=O)[C@H](CC(=O)O)NC(=O)[C@@H]2C[C@@H](O)CN2C(=O)CN(C)C(=O)[C@H](Cc2ccc(-c3ccccc3)cc2)NC(=O)[C@H](Cc2ccc(-c3ccccc3)cc2)NC(=O)[C@H](Cc2ccccc2)NC(=O)CSC[C@@H](C(=O)NCC(N)=O)NC1=O [Example 44] ({CH2CO}-F[Bip][Bip][Sar][Hyp]DRVPVRLCG-NH2; thioether N-13)	5.70 to 6.70
CC(C)C[C@@H]1NC(=O)[C@H](CCCNC(=N)N)NC(=O)[C@H](C(C)C)NC(=O)[C@@H]2CCCN2C(=O)[C@H](C(C)C)NC(=O)[C@H](CCCNC(=N)N)NC(=O)[C@H](CC(=O)O)NC(=O)[C@@H]2Cc3ccccc3CN2C(=O)CN(C)C(=O)[C@H](Cc2ccc(-c3ccccc3)cc2)NC(=O)[C@H](Cc2ccc(-c3ccccc3)cc2)NC(=O)[C@H](Cc2ccccc2)NC(=O)CSC[C@@H](C(=O)NCC(N)=O)NC1=O [Example 45] ({CH2CO}-F[Bip][Bip][Sar][Tic]DRVPVRLCG-NH2; thioether N-13)	5.70 to 6.70
CC(C)C[C@@H]1NC(=O)[C@H](CCCNC(=N)N)NC(=O)[C@H](C(C)C)NC(=O)[C@@H]2CCCN2C(=O)[C@H](C(C)C)NC(=O)[C@H](CCCNC(=N)N)NC(=O)[C@H](CC(=O)O)NC(=O)[C@@H]2CCN2C(=O)CN(C)C(=O)[C@H](Cc2ccc(-c3ccccc3)cc2)NC(=O)[C@H](Cc2ccc(-c3ccccc3)cc2)NC(=O)[C@H](Cc2ccccc2)NC(=O)CSC[C@@H](C(=O)NCC(N)=O)NC1=O [Example 46] ({CH2CO}-F[Bip][Bip][Sar][Aze]DRVPVRLCG-NH2; thioether N-13)	5.70 to 6.70
CC(C)C[C@@H]1NC(=O)[C@H](CCCNC(=N)N)NC(=O)[C@H](C(C)C)NC(=O)[C@@H]2CCCN2C(=O)[C@H](C(C)C)NC(=O)[C@H](CCCNC(=N)N)NC(=O)[C@H](CC(=O)O)NC(=O)[C@H](Cc2ccc(O)cc2)NC(=O)CN(C)C(=O)[C@H](Cc2ccc(-c3ccccc3)cc2)NC(=O)[C@H](Cc2ccc(-c3ccccc3)cc2)NC(=O)[C@H](CN2CCOCC2)NC(=O)CSC[C@@H](C(=O)NCC(N)=O)NC1=O [Example 47] ({CH2CO}-[Ala(morpholin-4-yl)][Bip][Bip][Sar]YDRVPVRLCG-NH2; thioether N-13)	6.70 to 7.30
CC(C)C[C@@H]1NC(=O)[C@H](Cc2ccc(O)cc2)NC(=O)[C@H](C(C)C)NC(=O)[C@@H]2CCCN2C(=O)[C@H](C(C)C)NC(=O)[C@H](CCCNC(=N)N)NC(=O)[C@H](CC(=O)O)NC(=O)[C@H](Cc2ccc(O)cc2)NC(=O)CN(C)C(=O)[C@H](Cc2ccc(-c3ccccc3)cc2)NC(=O)[C@H](Cc2ccc(-c3ccccc3)cc2)NC(=O)[C@H](CN2CCOCC2)NC(=O)CSC[C@@H](C(=O)NCC(N)=O)NC1=O [Example 48] ({CH2CO}-[Ala(morpholin-4-yl)][Bip][Bip][Sar]YDRVPVYLCG-NH2; thioether N-13)	5.70 to 6.70
CC(C)C[C@@H]1NC(=O)[C@H](Cc2ccc(O)cc2)NC(=O)[C@H](C(C)C)NC(=O)[C@@H]2CCCN2C(=O)[C@H](C(C)C)NC(=O)[C@H](CCCNC(=N)N)NC(=O)[C@H](CC(=O)O)NC(=O)[C@@H]2CCCN2C(=O)CN(C)C(=O)[C@H](Cc2ccc(-c3ccccc3)cc2)NC(=O)[C@H](Cc2ccc(-c3ccccc3)cc2)NC(=O)[C@H](CN2CCOCC2)NC(=O)CSC[C@@H](C(=O)NCC(N)=O)NC1=O [Example 49] ({CH2CO}-[Ala(morpholin-4-yl)][Bip][Bip][Sar]PDRVPVYLCG-NH2; thioether N-13)	6.70 to 7.30
CC(C)C[C@@H]1NC(=O)[C@H](Cc2ccc(O)cc2)NC(=O)[C@H](C(C)C)NC(=O)[C@@H]2CCCN2C(=O)[C@H](C(C)C)NC(=O)[C@H](CCCNC(=N)N)NC(=O)[C@H](CC(=O)O)NC(=O)[C@H](Cc2ccc(O)cc2)NC(=O)CN(C)C(=O)[C@H](Cc2ccc(-c3ccccc3)cc2)NC(=O)[C@H](Cc2ccc(-c3ccccc3)cc2)NC(=O)[C@H](C(C)(C)O)NC(=O)CSC[C@@H](C(=O)NCC(N)=O)NC1=O [Example 50] ({CH2CO}-[Val(3-OH)][Bip][Bip][Sar]YDRVPVYLCG-NH2; thioether N-13)	6.70 to 7.30
CC(C)C[C@@H]1NC(=O)[C@H](CCCNC(=N)N)NC(=O)[C@H](C(C)C)NC(=O)[C@@H]2CCCN2C(=O)[C@H](Cc2ccc(CN)cc2)NC(=O)[C@H](CCCNC(=N)N)NC(=O)[C@H](CC(=O)O)NC(=O)[C@@H]2CCCN2C(=O)CN(C)C(=O)[C@H](Cc2ccc(-c3ccccc3)cc2)NC(=O)[C@H](Cc2ccc(-c3ccccc3)cc2)NC(=O)[C@H](CN2CCOCC2)NC(=O)CSC[C@@H](C(=O)NCC(N)=O)NC1=O [Example 51] ({CH2CO}-[Ala(morpholin-4-yl)][Bip][Bip][Sar]PDR[Phe(4-CH2NH2)]PVRLCG-NH2; thioether N-13)	5.70 to 6.70
CC(C)C[C@@H]1NC(=O)[C@H](CCCNC(=N)N)NC(=O)[C@H](C(C)C)NC(=O)[C@@H]2CCCN2C(=O)[C@H](Cc2ccc(F)cc2)NC(=O)[C@H](CCCNC(=N)N)NC(=O)[C@H](CC(=O)O)NC(=O)[C@@H]2CCCN2C(=O)CN(C)C(=O)[C@H](Cc2ccc(-c3ccccc3)cc2)NC(=O)[C@H](Cc2ccc(-c3ccccc3)cc2)NC(=O)[C@H](CN2CCOCC2)NC(=O)CSC[C@@H](C(=O)NCC(N)=O)NC1=O [Example 52] ({CH2CO}-[Ala(morpholin-4-yl)][Bip][Bip][Sar]PDR[Phe(4-F)]PVRLCG-NH2; thioether N-13)	5.70 to 6.70
CC(C)C[C@@H]1NC(=O)[C@H](CCCNC(=N)N)NC(=O)[C@H](C(C)C)NC(=O)[C@@H]2CCCN2C(=O)[C@H](Cc2ccccc2F)NC(=O)[C@H](CCCNC(=N)N)NC(=O)[C@H](CC(=O)O)NC(=O)[C@@H]2CCCN2C(=O)CN(C)C(=O)[C@H](Cc2ccc(-c3ccccc3)cc2)NC(=O)[C@H](Cc2ccc(-c3ccccc3)cc2)NC(=O)[C@H](CN2CCOCC2)NC(=O)CSC[C@@H](C(=O)NCC(N)=O)NC1=O [Example 53] ({CH2CO}-[Ala(morpholin-4-yl)][Bip][Bip][Sar]PDR[Phe(2-F)]PVRLCG-NH2; thioether N-13)	5.70 to 6.70
CC(C)C[C@@H]1NC(=O)[C@H](CCCNC(=N)N)NC(=O)[C@H](C(C)C)NC(=O)[C@@H]2CCCN2C(=O)[C@H](Cc2cccnc2)NC(=O)[C@H](CCCNC(=N)N)NC(=O)[C@H](CC(=O)O)NC(=O)[C@@H]2CCCN2C(=O)CN(C)C(=O)[C@H](Cc2ccc(-c3ccccc3)cc2)NC(=O)[C@H](Cc2ccc(-c3ccccc3)cc2)NC(=O)[C@H](CN2CCOCC2)NC(=O)CSC[C@@H](C(=O)NCC(N)=O)NC1=O [Example 54] ({CH2CO}-[Ala(morpholin-4-yl)][Bip][Bip][Sar]PDR[3Pal]PVRLCG-NH2; thioether N-13)	6.70 to 7.30

Reference: patent US20250145665A1, “MACROCYCLIC PEPTIDES USEFUL AS MODULATORS OF TNF ALPHA” (Bristol-Myers Squibb Company, priority 2023, published 2025)
